These results are taken from patent US20120135923A1, “Use of Melanocortins to Treat Dyslipidemia” (IPSEN PHARMA, S.A.S., priority 2009, published 2012).

Molecules are shown by their SMILES. Read-outs that look alike come from different tables or passages of the source. Bridge positions count the residues as written; N and C are the ends. Square brackets hold non-standard residues; d marks the D form. Peptide text beside a SMILES is read from it. d2Nal = N[C@H](Cc1ccc2ccccc2c1)C(=O)O; Bta = N[C@@H](Cc1csc2ccccc12)C(=O)O; Nle = CCCC[C@H](N)C(=O)O; Ava = NCCCCC(=O)O; βAla = NCCC(=O)O

Holding throughout (assay): cyclic AMP bioassay (ECL) in CHO-K1 cells
Type in all cases: cell-based

The target in one assay is T1, hMC5-R (Homo sapiens, UniProt P33032).
T1 construct: expressed in transfected cells; host or cells: CHO-K1
T1 sequence (P33032 whole entry): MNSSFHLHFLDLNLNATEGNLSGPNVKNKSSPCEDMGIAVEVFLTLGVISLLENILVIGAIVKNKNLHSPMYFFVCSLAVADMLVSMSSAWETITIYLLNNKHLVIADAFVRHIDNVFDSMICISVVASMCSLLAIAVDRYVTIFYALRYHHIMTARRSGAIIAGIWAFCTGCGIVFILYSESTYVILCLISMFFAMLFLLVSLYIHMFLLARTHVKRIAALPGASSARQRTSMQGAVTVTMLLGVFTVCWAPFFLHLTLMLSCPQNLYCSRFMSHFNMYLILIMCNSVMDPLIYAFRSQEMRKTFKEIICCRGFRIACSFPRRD

The target in the next assay is T2, hMC4-R (Homo sapiens, UniProt P32245).
T2 construct: expressed in transfected cells; host or cells: CHO-K1
T2 sequence (P32245 whole entry): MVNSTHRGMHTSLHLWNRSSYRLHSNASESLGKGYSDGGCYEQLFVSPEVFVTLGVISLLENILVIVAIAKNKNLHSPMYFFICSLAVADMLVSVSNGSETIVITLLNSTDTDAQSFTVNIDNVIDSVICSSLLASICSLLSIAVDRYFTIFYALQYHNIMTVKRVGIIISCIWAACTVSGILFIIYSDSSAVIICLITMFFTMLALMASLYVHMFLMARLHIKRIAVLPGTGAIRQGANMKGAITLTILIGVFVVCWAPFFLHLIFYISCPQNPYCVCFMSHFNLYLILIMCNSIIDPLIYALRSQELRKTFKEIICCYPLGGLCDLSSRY

The target of a further assay is T3, hMC3-R (Homo sapiens, UniProt P41968).
T3 construct: expressed in transfected cells; host or cells: CHO-K1
T3 sequence (P41968 whole entry): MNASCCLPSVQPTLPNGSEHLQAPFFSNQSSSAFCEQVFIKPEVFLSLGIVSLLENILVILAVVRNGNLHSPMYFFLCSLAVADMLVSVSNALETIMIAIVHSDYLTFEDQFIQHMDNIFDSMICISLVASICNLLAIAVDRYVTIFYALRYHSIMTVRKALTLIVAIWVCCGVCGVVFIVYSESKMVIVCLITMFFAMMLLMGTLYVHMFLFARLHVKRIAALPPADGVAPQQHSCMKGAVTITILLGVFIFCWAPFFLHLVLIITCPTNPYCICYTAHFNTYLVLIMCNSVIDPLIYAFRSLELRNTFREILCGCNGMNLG

Another assay addresses T4, hMC1-R (Homo sapiens, UniProt Q01726).
T4 construct: expressed in transfected cells; host or cells: CHO-K1

The mark [1] stands for this setting: Table 9A/9B, read-out: EC50 hMC5-R.
[2] abbreviates: Table 9A/9B, read-out: EC50 hMC4-R.
Where [3] appears, read: Table 9A/9B, read-out: EC50 hMC3-R.
Where [4] appears, read: Table 9A/9B, read-out: EC50 hMC1-R.

T4 sequence (Q01726 whole entry): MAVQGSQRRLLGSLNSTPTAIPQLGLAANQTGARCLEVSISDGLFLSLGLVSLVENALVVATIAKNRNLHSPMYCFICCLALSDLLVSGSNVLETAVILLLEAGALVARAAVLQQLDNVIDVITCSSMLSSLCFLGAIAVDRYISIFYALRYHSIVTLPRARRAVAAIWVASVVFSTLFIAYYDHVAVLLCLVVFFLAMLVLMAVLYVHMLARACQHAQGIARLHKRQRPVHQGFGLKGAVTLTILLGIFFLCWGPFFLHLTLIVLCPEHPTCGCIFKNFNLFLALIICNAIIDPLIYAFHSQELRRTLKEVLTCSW
Protocol for hMC1-R: (§1) Intracellular cyclic AMP (cAMP) levels were determined by an electrochemiluminescence (ECL) assay (Meso Scale Discovery®, Gaithersburg, Md.; referred to hereinafter as MSD). […] Transgenic CHO-K1 cells stably expressing hMC receptor subtypes 1, 3, 4 or 5 were dispensed at a density of approximately 7,000 cells/well in 384-well Multi-Array®plates (MSD) containing integrated carbon electrodes and coated with anti-cAMP antibody. Increasing concentrations of the test compounds were added and the cells were incubated for approximately 40 minutes at approximately 37° C. […] At the end of the second incubation period read buffer (Tris-buffered solution containing an ECL co-reactant and Triton X-100 at ph 7.8) was added and the cAMP levels in the cell lysates were immediately determined by ECL detection with a Sector Imager 6000 Reader® (MSD). Data were analyzed using a computer-assisted non-linear regression analysis (XL fit; IDBS) and reported as either an EC50 value or a Kb value.
(§2) The Kb value reflects the potency of an antagonist and is determined by Schild analysis. In brief, concentration-response curves of an agonist are carried out in the presence of increasing concentrations of an antagonist. […] It is calculated by extrapolating the line on a Schild plot to zero on the y-axis.
Protocol for hMC3-R: as §1, §2
Protocol for hMC5-R: as §1, §2

Regarding `CCCC[C@H](NC(C)=O)C(=O)N[C@H]1CSSC[C@@H](C(N)=O)NC(=O)CCCCNC(=O)[C@H](Cc2c[nH]c3ccccc23)NC(=O)[C@H](CCCNC(=N)N)NC(=O)[C@@H](Cc2ccccc2)NC(=O)[C@H](Cc2c[nH]cn2)NC1=O` [Ac-Nle-c(Cys-His-D-Phe-Arg-Trp-Apn-Cys)-NH2] (Ac-[Nle]CH[dF]RW[Ava]C-NH2; disulfide 2-8), the EC50 – broadly, the concentration needed to bring the measured effect to its halfway point – at hMC5-R (setting [1]) came out at 1.73 nM; on hMC4-R (setting [2]), 0.0492 nM; at hMC3-R (setting [3]), 0.199 nM; at hMC1-R (setting [4]), 0.76 nM.

In the case of `CCCC[C@@H](C(=O)N[C@H]1CSSC[C@@H](C(N)=O)NC(=O)[C@H](Cc2c[nH]c3ccccc23)NC(=O)[C@H](CCCNC(=N)N)NC(=O)[C@@H](Cc2ccccc2)NC(=O)[C@H](Cc2cnc[nH]2)NC(=O)[C@@H](C)NC1=O)N1C(=O)N[C@@H](C(C)C)C1=O` [Hydantoin(C(O)-(Val-Nle))-c(Cys-D-Ala-His-D-Phe-Arg-Trp-Cys)-NH2], the EC50 on hMC4-R is 0.977 nM; at hMC3-R, 4.61 nM.

For `C[C@H]1NC(=O)[C@@H](NC(=O)CN2C(=O)N[C@@H](CCCNC(=N)N)C2=O)CSSC[C@@H](C(N)=O)NC(=O)[C@H](Cc2c[nH]c3ccccc23)NC(=O)[C@H](CCCNC(=N)N)NC(=O)[C@@H](Cc2ccccc2)NC(=O)[C@H](Cc2cnc[nH]2)NC1=O` [Hydantoin(C(O)-(Arg-Gly))-c(Cys-D-Ala-His-D-Phe-Arg-Trp-Cys)-NH2], the EC50 turned out to be 0.503 nM at hMC4-R, 18.2 nM on hMC3-R and 8.81 nM at hMC1-R.

Consider `CC(=O)N[C@H]1CSSC[C@@H](C(=O)N2CCC[C@H]2C(=O)N2CCC[C@H]2C(=O)N[C@@H](CCCNC(=N)N)C(=O)N[C@@H](CC(=O)O)C(=O)NCCC(=O)N[C@@H](CCCNC(=N)N)C(=O)N[C@@H](CCCNC(=N)N)C(=O)N[C@@H](CCCNC(=N)N)C(=O)N[C@@H](CCCNC(=N)N)C(=O)N[C@@H](CCCNC(=N)N)C(=O)N[C@@H](CCCNC(=N)N)C(=O)N[C@@H](CCC(N)=O)C(=O)N[C@@H](CCCNC(=N)N)C(=O)N[C@@H](CCCNC(=N)N)C(=O)N[C@@H](CCCNC(=N)N)C(N)=O)NC(=O)[C@H](C)NC(=O)[C@H](Cc2csc3ccccc23)NC(=O)[C@H](CCCNC(=N)N)NC(=O)[C@@H](Cc2ccc3ccccc3c2)NC(=O)[C@H](Cc2c[nH]cn2)NC(=O)[C@H](CCC(=O)O)NC1=O` (Ac-CEH[d2Nal]R[Bta]ACPPRD[βAla]RRRRRRQRRR-NH2; disulfide 1-8), for which the concentration for a half-maximal effect (EC50) on hMC5-R worked out at 2360 nM; on hMC1-R, 86.1 nM. Also, the Kb on hMC4-R came out at 19.4 nM; on hMC3-R it was 41.7 nM.

Consider `CC(=O)N[C@H]1CSSC[C@@H](C(=O)N2CCC[C@H]2C(=O)N2CCC[C@H]2C(=O)N[C@@H](CCCCN)C(=O)N[C@@H](CC(=O)O)C(=O)NCCC(=O)N[C@@H](Cc2ccc(O)cc2)C(=O)NCC(=O)N[C@@H](CCCNC(=N)N)C(=O)N[C@@H](CCCNC(=N)N)C(=O)N[C@@H](CCCNC(=N)N)C(=O)N[C@@H](CCCNC(=N)N)C(=O)N[C@@H](CCCNC(=N)N)C(=O)N[C@@H](CCC(N)=O)C(=O)N[C@@H](CCCNC(=N)N)C(=O)N[C@@H](CCCNC(=N)N)C(=O)N[C@@H](CCCNC(=N)N)C(N)=O)NC(=O)[C@H](C)NC(=O)[C@H](Cc2csc3ccccc23)NC(=O)[C@H](CCCNC(=N)N)NC(=O)[C@@H](Cc2ccc3ccccc3c2)NC(=O)[C@H](Cc2c[nH]cn2)NC(=O)[C@H](CCC(=O)O)NC1=O` (Ac-CEH[d2Nal]R[Bta]ACPPKD[βAla]YGRRRRRQRRR-NH2; disulfide 1-8), for which the EC50 on hMC5-R worked out at 879 nM; at hMC1-R it was 114 nM. The Kb on hMC4-R is 28.4 nM; on hMC3-R, 44.6 nM.

For the compound `CC(=O)N[C@@H](CCCNC(=N)N)C(=O)N[C@H]1CSSC(C)(C)[C@@H](C(N)=O)NC(=O)[C@H](Cc2c[nH]c3ccccc23)NC(=O)[C@H](CCCNC(=N)N)NC(=O)[C@@H](Cc2ccccc2)NC(=O)[C@H](Cc2c[nH]cn2)NC(=O)[C@@H](C)NC1=O` [Ac-Arg-c(Cys-D-Ala-His-D-Phe-Arg-Trp-Pen)-NH2], the concentration giving a half-maximal response (EC50) came out at 10000 nM on hMC5-R, 0.79 nM at hMC4-R, 13.3 nM at hMC3-R and 48.3 nM on hMC1-R.

As to `CCCC[C@H](NC(C)=O)C(=O)N[C@H]1CC(=O)NCCCC[C@@H](C(N)=O)NC(=O)[C@H](C)NC(=O)[C@H](Cc2c[nH]c3ccccc23)NC(=O)[C@H](CCCNC(=N)N)NC(=O)[C@@H](Cc2ccc3ccccc3c2)NC(=O)[C@H](Cc2c[nH]cn2)NC1=O` [Ac-Nle-c(Asp-His-D-2-Nal-Arg-Trp-Ala-Lys)-NH2], the EC50 on hMC1-R (Table 9C/9D, read-out: EC50 hMC1-R) was 0.619 nM.

Take `N=C(N)NCCC[C@@H]1NC(=O)[C@@H](Cc2ccccc2)NC(=O)[C@H](Cc2c[nH]cn2)NC(=O)[C@H](CCC(=O)O)NC(=O)[C@@H](NC(=O)CN2C(=O)N[C@@H](CCCNC(=N)N)C2=O)CSSC[C@@H](C(N)=O)NC(=O)[C@H](Cc2c[nH]c3ccccc23)NC1=O` [Hydantoin(C(O)-(Arg-Gly))-c(Cys-Glu-His-D-Phe-Arg-Trp-Cys)-NH2]: the EC50 at hMC5-R (Table 11, read-out: EC50 hMC5) stood at 4010 nM; on hMC4-R (Table 11, read-out: EC50 hMC4), 0.0979 nM; at hMC3-R (Table 11, read-out: EC50 hMC3), 7.86 nM; on hMC1-R (Table 11, read-out: EC50 hMC1), 8.83 nM.

`CCCC[C@H](N)C(=O)N[C@H]1CSSC[C@@H](C(N)=O)NC(=O)CCCCNC(=O)[C@H](Cc2c[nH]c3ccccc23)NC(=O)[C@H](CCCNC(=N)N)NC(=O)[C@@H](Cc2ccccc2)NC(=O)[C@H](Cc2c[nH]cn2)NC1=O` [Nle-c(Cys-His-D-Phe-Arg-Trp-Apn-Cys)-NH2] (H-[Nle]CH[dF]RW[Ava]C-NH2; disulfide 2-8): the EC50 came to 3.1 nM on hMC5-R (setting [1]), 0.018 nM at hMC4-R (setting [2]), 0.27 nM on hMC3-R (setting [3]) and 0.31 nM at hMC1-R (setting [4]).

Consider `C[C@H]1NC(=O)[C@@H](NC(=O)[C@H](CCCNC(=N)N)N2C(=O)CNC2=O)CSSC[C@@H](C(N)=O)NC(=O)[C@H](Cc2c[nH]c3ccccc23)NC(=O)[C@H](CCCNC(=N)N)NC(=O)[C@@H](Cc2ccccc2)NC(=O)[C@H](Cc2cnc[nH]2)NC1=O` [Hydantoin(C(O)-(Gly-Arg))-c(Cys-D-Ala-His-D-Phe-Arg-Trp-Cys)-NH2], for which the results for the concentration for a half-maximal effect (EC50) at hMC4-R, on hMC3-R and on hMC1-R were 0.599 nM, 5.17 nM and 8.85 nM, respectively.

Regarding `N=C(N)NCCC[C@@H]1NC(=O)[C@@H](Cc2ccccc2)NC(=O)[C@H](Cc2cnc[nH]2)NC(=O)[C@H](CCC(=O)O)NC(=O)[C@@H](NC(=O)CN2C(=O)CNC2=O)CSSC[C@@H](C(N)=O)NC(=O)[C@H](Cc2c[nH]c3ccccc23)NC1=O` [Hydantoin(C(O)-(Gly-Gly))-c(Cys-Glu-His-D-Phe-Arg-Trp-Cys)-NH2], the EC50 at hMC3-R (Table 11, read-out: EC50 hMC3) was 8.05 nM; on hMC1-R (Table 11, read-out: EC50 hMC1), 124 nM.

`N=C(N)NCCC[C@@H]1NC(=O)[C@@H](Cc2ccccc2)NC(=O)[C@H](Cc2cnc[nH]2)NC(=O)[C@H](CCC(=O)O)NC(=O)[C@@H](NC(=O)[C@H](CCCNC(=N)N)N2C(=O)CNC2=O)CSSC[C@@H](C(N)=O)NC(=O)[C@H](Cc2c[nH]c3ccccc23)NC1=O` [Hydantoin(C(O)-(Gly-Arg))-c(Cys-Glu-His-D-Phe-Arg-Trp-Cys)-NH2]: the EC50 at hMC5-R (Table 11, read-out: EC50 hMC5) amounted to 335 nM; on hMC4-R (Table 11, read-out: EC50 hMC4) it was 0.0687 nM; on hMC3-R (Table 11, read-out: EC50 hMC3) it was 3.63 nM; on hMC1-R (Table 11, read-out: EC50 hMC1), 9.97 nM.

On to `CC(=O)N[C@H]1CSSC[C@@H](C(=O)N2CCC[C@H]2C(=O)N2CCC[C@H]2C(=O)N[C@@H](CCCCN)C(=O)N[C@@H](CC(=O)O)C(=O)NCCC(=O)N[C@@H](Cc2ccc(O)cc2)C(=O)NCC(=O)N[C@@H](CCCNC(=N)N)C(=O)N[C@@H](CCCNC(=N)N)C(=O)N[C@@H](CCCCN)C(=O)N[C@@H](CCCNC(=N)N)C(=O)N[C@@H](CCCNC(=N)N)C(=O)N[C@@H](CCC(N)=O)C(=O)N[C@@H](CCCNC(=N)N)C(=O)N[C@@H](CCCNC(=N)N)C(=O)N[C@@H](CCCNC(=N)N)C(N)=O)NC(=O)[C@H](C)NC(=O)[C@H](Cc2csc3ccccc23)NC(=O)[C@H](CCCNC(=N)N)NC(=O)[C@@H](Cc2ccc3ccccc3c2)NC(=O)[C@H](Cc2c[nH]cn2)NC(=O)[C@H](CCC(=O)O)NC1=O`, for which the EC50 at hMC5-R was 158 nM; at hMC1-R it was 19.8 nM. In addition, the Kb on hMC4-R was 8.43 nM; on hMC3-R it was 37.8 nM.

Consider `CCCC[C@@H](C(=O)N[C@H]1CSSC[C@@H](C(N)=O)NC(=O)[C@H](Cc2c[nH]c3ccccc23)NC(=O)[C@H](CCCNC(=N)N)NC(=O)[C@@H](Cc2ccccc2)NC(=O)[C@H](Cc2cnc[nH]2)NC(=O)[C@@H](C)NC1=O)N1C(=O)N[C@@H](CC(C)C)C1=O` [Hydantoin(C(O)-(Leu-Nle))-c(Cys-D-Ala-His-D-Phe-Arg-Trp-Cys)-NH2], for which the values for the EC50 at hMC4-R and at hMC3-R were 1.83 nM and 9.68 nM, respectively.

With `CCCC[C@H](NC(C)=O)C(=O)N[C@H]1CC(=O)NCCCC[C@@H](C(N)=O)NC(=O)CCCNC(=O)[C@H](Cc2c[nH]c3ccccc23)NC(=O)[C@H](CCCNC(=N)N)NC(=O)[C@@H](Cc2ccccc2)NC(=O)[C@H](Cc2c[nH]cn2)NC1=O` [Ac-Nle-c(Asp-His-D-Phe-Arg-Trp-Gaba-Lys)-NH2], the 50% effective concentration (EC50) at hMC5-R (setting [1]) was 3.48 nM; on hMC4-R (setting [2]), 0.131 nM; on hMC3-R (setting [3]) it was 0.628 nM; at hMC1-R (setting [4]), 1.37 nM.

Take `C[C@@H]1NC(=O)N(CC(=O)N[C@H]2CSSC[C@@H](C(N)=O)NC(=O)[C@H](Cc3c[nH]c4ccccc34)NC(=O)[C@H](CCCNC(=N)N)NC(=O)[C@@H](Cc3ccccc3)NC(=O)[C@H](Cc3cnc[nH]3)NC(=O)[C@@H](C)NC2=O)C1=O` [Hydantoin(C(O)-(Ala-Gly))-c(Cys-D-Ala-His-D-Phe-Arg-Trp-Cys)-NH2]: the EC50 on hMC5-R came to 516 nM; at hMC4-R it was 0.241 nM; on hMC3-R, 2.23 nM.

Consider `CCCC[C@H](NC(C)=O)C(=O)N[C@@H]1C(=O)N[C@H](C)C(=O)N[C@@H](Cc2c[nH]cn2)C(=O)N[C@H](Cc2ccccc2)C(=O)N[C@@H](CCCNC(=N)N)C(=O)N[C@@H](Cc2c[nH]c3ccccc23)C(=O)N[C@H](C(N)=O)CSSC1(C)C` [Ac-Nle-c(Pen-D-Ala-His-D-Phe-Arg-Trp-Cys)-NH2], for which the half-maximal effective concentration (EC50) at hMC4-R is 0.531 nM; at hMC3-R, 1.89 nM.
